Our source for the inhibition values is patent publication US7018642B2 (The Procter & Gamble Company, priority 2001, dated 2006).

What all share (type): cell-based
The test system of test [1] is P. aeruginosa strain PAO1. The test is described as follows: Biofilm prevention screen (96-well microplate, crystal violet). Conditions: Pseudomonas aeruginosa, positive = prevention, negative = enhancement of biofilm formation, quadruplicate, read-out: average percentage reduction of biofilm formed relative to DMSO controls. In short, it runs like this:
(§1)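 Three strains in 96-well round-bottom plates, compound at 250–500 μM, 160 μM or 32 μM, 16–26 h at 200 rpm (30° C Pseudomonas, 37° C staphylococcus). Staining: CV 45 min at room temperature, ethanol extraction, A586. Reported as % biofilm reduction vs DMSO, n = 4.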

Test [2] deals with P. fluorescens strain ATCC 13525. The test is described as above. Conditions: Pseudomonas fluorescens, positive = prevention, negative = enhancement of biofilm formation, quadruplicate, read-out: average percentage reduction of biofilm formed relative to DMSO controls; for inhibition at 32 µM: ATCC13525, 32 μM; for inhibition at 160 µM: ATCC13525, 160 μM; for inhibition at 390 µM: ATCC13525, 390 μM. In short, it runs like this:
as §1

Test [3] has as its system S. epidermidis strain ATCC 35984. Described as above. Conditions: Staphylococcus epidermidis, positive = prevention, negative = enhancement of biofilm formation, quadruplicate, read-out: average percentage reduction of biofilm formed relative to DMSO controls; for inhibition at 32 µM: ATCC35984, 32 μM; for inhibition at 160 µM: ATCC35984, 160 μM; for inhibition at 390 µM: ATCC35984, 390 μM. In short, it runs like this:
as §1

For test [4], the system named is P. aeruginosa strain PAO1. The experiment in a line: Improved biofilm dispersion screen (already-formed biofilms, crystal violet). The note with it: Pseudomonas aeruginosa, 30 mM NaOH step, positive = dispersion, negative = enhancement of pre-existing biofilm, quadruplicate, read-out: average percentage reduction of biofilm relative to the two control values (dispersion). In short, it runs like this: (§2)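 Biofilms pre-grown 24 h without compound, then given fresh medium with compound at 390 μM for another 22–26 h. NaOH wash in PBS (0 mM S. epidermidis, 20 mM P. fluorescens, 30 mM P. aeruginosa; 30 min, room temperature), then crystal violet staining. Percent biofilm reduction calculated against t0 and DMSO t24 controls, quadruplicates; negative values mean enhancement.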

Test [5] has as its system P. fluorescens strain ATCC 13525. The description is as above. Conditions: Pseudomonas fluorescens, ATCC13525, 20 mM NaOH step, positive = dispersion, negative = enhancement of pre-existing biofilm, quadruplicate, read-out: average percentage reduction of biofilm relative to the two control values (dispersion). The method, boiled down: as §2
For test [6], the system named is S. epidermidis strain ATCC 35984. The description is as above. The note with it: Staphylococcus epidermidis, ATCC35984, no NaOH, positive = dispersion, negative = enhancement of pre-existing biofilm, quadruplicate, read-out: average percentage reduction of biofilm relative to the two control values (dispersion). In short, it runs like this: as §2

SMILES strings stand for the structures.

Regarding `CCCCCCCCNC(=O)[C@@H]1CCN1C(=O)OC(C)(C)C` [Compound 284], the inhibition at 32 µM in test [1] was 2%; in test [2], 4%; in test [3], -4%. In addition, the inhibition at 160 µM in test [1] is -10%; in test [2], 21%; in test [3] it was -33%. The inhibition at 390 µM in test [1] was -12%; in test [2] it was -2%; in test [3], 56%; in test [4], -79%; in test [5], -15%; in test [6], 0%.
In the case of `CCCCCCCCNC(=O)[C@@H]1CCCCN1C(=O)OC(C)(C)C` [Compound 19], the inhibition at 32 µM in test [1] was 10%; in test [2], 6%; in test [3], -11%. For the same molecule, the inhibition at 160 µM in test [1] is -2%; in test [2], 8%; in test [3], -33%. Besides, the inhibition at 390 µM in test [1] was -17%; in test [2], 10%; in test [3], -11%; in test [4], -25%; in test [5], 0%; in test [6], -3%.
Consider `CCCCNC(=O)[C@H]1CCCN1C(=O)OC(C)(C)C` [Compound 152], for which the inhibition at 32 µM is -4% in test [1], 5% in test [2] and -5% in test [3]. In addition, the inhibition at 160 µM in test [1] is -9%; in test [2], 5%; in test [3], -13%. The inhibition at 390 µM in test [1] was 2%; in test [2], -7%; in test [3], -8%; in test [4], -9%; in test [5], 1%; in test [6], -4%.
On to `CCCCCCNC(=O)[C@@H]1CCN1C(=O)OC(C)(C)C` [Compound 283], for which the inhibition at 32 µM was -7% in test [1], 3% in test [2] and -3% in test [3]. The inhibition at 160 µM in test [1] is -10%; in test [2], -1%; in test [3], -10%. Also, the inhibition at 390 µM was 0% in test [1]; 13% in test [2]; -23% in test [3]; -11% in test [4]; 0% in test [5]; -11% in test [6].
